Assay results from patent US20070072831A1, “Integrase inhibitor compounds” (GILEAD SCIENCES, INC., priority 2005, published 2007).

Assays:
[1] = tested on: HIV-IIIb; assay: Antiviral assay in MT-4 cells infected with HIV-IIIb; type: cell-based; settings: MT4, 120 h; MT-4 cells, HIV-IIIb, 5 days; read-out: EC50 Range MT-4
Method: See: Wolfe, etal J. Virol.
Antiviral Assays in MT2 and MT4 Cells
For the antiviral assay utilizing MT-2 cells, 50 μl of 2× test concentration of 5-fold serially diluted compound in culture medium with 10% FBS was added to each well of a 96-well plate (9 concentrations) in triplicate. MT-2 cells were infected with HIV-IIIb at a multiplicity of infection (m.o.i) of 0.01 for 3 hours. Fifty microliters of infected cell suspension in culture medium with 10% FBS (˜1.5×10^4 cells) was then added to each well containing 50 μl of diluted compound. The plates were then incubated at 37° C. for 5 days. For the antiviral assay utilizing MT-4 cells, 20 μl of 2× test concentration of 5-fold serially diluted compound in culture medium with 10% FBS was added to each well of a 384-well plate (7 concentrations) in triplicate. MT-4 cells were next mixed with HIV-IIIb at an m.o.i. of 0.1 and 20 μl of virus/cell mixture (˜2000 cells) was immediately added to each well containing 20 μl of diluted compound. The plates were then incubated at 37° C. for 5 days. After 5 days of incubation, 100 μl of CellTiter-Glo™ Reagent (catalog # G7571, Promega Biosciences, Inc., Madison, Wis.) was added to each well containing MT-2 cells and 40 μl to each well containing MT-4 cells. Cell lysis was carried out by incubating at room temperature for 10 min and then chemiluminescence was read.

[2] = biological target: HIV integrase (Human immunodeficiency virus type 1 group M subtype B, UniProt P04585); assay: biochemical
Method: Representative compounds of the invention were tested for biological activity by methods including anti-HIV assay, measuring inhibition of HIV-integrase strand transfer catalysis, and cytotoxicity.
HIV Integrase Assay (IC50 Determination)
The HIV Integrase assay is carried out in Reacti-Bind High Binding Capacity Streptavidin coated plates (Pierce # 15502) in 100 μl reactions. The wells of the plate are rinsed once with PBS. Each well is then coated at room temperature for 1 h with 100 μl of 0.14 μM Donor DNA with the following sequence:
After coating, the plate was washed twice with PBS. 3′processing of the Donor DNA is started by adding 80 μl of Integrase/buffer mixture (25 mM HEPES, pH 7.3, 12.5 mM DTT, 93.75 mM NaCl, 12.5 mM MgCl2, 1.25% Glycerol, 0.3125 uM integrase) to each well. 3′processing is allowed to proceed for 30 min at 37° C., after which, 10 μl of test compound and 10 μl of 2.5 uM DIG-labeled Target DNA with the following sequence:
are added to each well to allow strand transfer to proceed for 30 min at 37° C. The plate is then washed three times with 2×SSC for 5 min and rinsed once with PBS. For detection of integrated product, 100 μl of a 1/2000 dilution of HRP-conjugated anti-DIG antibody (Pierce #31468) are added to each well and incubated for 1 hour. The plate was then washed three times for 5 min each, with 0.05% Tween-20 in PBS. For signal development and amplification, 100 μl of SuperSignal ELISA Femto Substrate (Pierce #37075) are added to each well. Chemiluminescence (in relative light units) is read immediately at 425 nm in the SPECTRAmax GEMINI Microplate Spectrophotometer using the end point mode at 5 sec per well.
For IC50 determinations, eight concentrations of test compounds in a 1/2.2 dilution series are used.

Compound	EC50 [1]	IC50 [2]
CCN(CC)CCS(=O)(=O)N(C)c1c2c(c(O)c3ncccc13)C(=O)N(Cc1ccc(F)cc1)C2 [Compound 161, 2-(diethylamino)-N-(7-(4-fluorobenzyl)-9-hydroxy-8-oxo-7,8-dihydro-6H-pyrrolo[3,4-g]quinolin-5-yl)-N-methylethanesulfonamide]	< 60 nM	60 to 1000 nM
CN(c1c2c(c(O)c3ncccc13)C(=O)N(Cc1ccc(F)cc1)C2)S(=O)(=O)CCN1CCCCC1 [Compound 162, N-(7-(4-fluorobenzyl)-9-hydroxy-8-oxo-7,8-dihydro-6H-pyrrolo[3,4-g]quinolin-5-yl)-N-methyl-2-(piperidin-1-yl)ethanesulfonamide]	60 to 1000 nM	60 to 1000 nM
CN(c1c2c(c(O)c3ncccc13)C(=O)N(Cc1ccc(F)cc1)C2)S(=O)(=O)CCN1CCOCC1 [Compound 163, N-(7-(4-fluorobenzyl)-9-hydroxy-8-oxo-7,8-dihydro-6H-pyrrolo[3,4-g]quinolin-5-yl)-N-methyl-2-morpholinoethanesulfonamide]	< 60 nM	< 60 nM
CN(c1c2c(c(O)c3ncccc13)C(=O)N(Cc1ccc(F)cc1)C2)S(=O)(=O)CCN1CCNCC1 [Compound 164, N-(7-(4-fluorobenzyl)-9-hydroxy-8-oxo-7,8-dihydro-6H-pyrrolo[3,4-g]quinolin-5-yl)-N-methyl-2-(piperazin-1-yl)ethanesulfonamide]	60 to 1000 nM	60 to 1000 nM
CN(C)C(=O)N(C)c1c2c(c(O)c3ncccc13)C(=O)N(Cc1ccc(F)cc1)C2 [Compound 171, 1-(7-(4-fluorobenzyl)-9-hydroxy-8-oxo-7,8-dihydro-6H-pyrrolo[3,4-g]quinolin-5-yl)-1,3,3-trimethylurea]	< 60 nM	< 60 nM
CN(C(=O)N1CCOCC1)c1c2c(c(O)c3ncccc13)C(=O)N(Cc1ccc(F)cc1)C2 [Compound 173, N-(7-(4-fluorobenzyl)-9-hydroxy-8-oxo-7,8-dihydro-6H-pyrrolo[3,4-g]quinolin-5-yl)-N-methylmorpholine-4-carboxamide]	60 to 1000 nM	60 to 1000 nM
CN(c1c2c(c(O)c3ncccc13)C(=O)N(Cc1cccc(Cl)c1)C2)S(C)(=O)=O [Compound 175, N-(7-(3-chlorobenzyl)-9-hydroxy-8-oxo-7,8-dihydro-6H-pyrrolo[3,4-g]quinolin-5-yl)-N-methylmethanesulfonamide]	< 60 nM	60 to 1000 nM
CN(c1c2c(c(O)c3ncccc13)C(=O)N(Cc1cccc(Cl)c1F)C2)S(C)(=O)=O [Compound 177, N-(7-(3-chloro-2-fluorobenzyl)-9-hydroxy-8-oxo-7,8-dihydro-6H-pyrrolo[3,4-g]quinolin-5-yl)-N-methylmethanesulfonamide]	< 60 nM	60 to 1000 nM
CN(c1c2c(c(O)c3ncccc13)C(=O)N(Cc1ccc(F)c(F)c1)C2)S(C)(=O)=O [Compound 179, N-(7-(3,4-difluorobenzyl)-9-hydroxy-8-oxo-7,8-dihydro-6H-pyrrolo[3,4-g]quinolin-5-yl)-N-methylmethanesulfonamide]	< 60 nM	< 60 nM
CN(c1c2c(c(O)c3ncccc13)C(=O)N(Cc1ccc(F)c(Cl)c1)C2)S(C)(=O)=O [Compound 181, N-(7-(3-chloro-4-fluorobenzyl)-9-hydroxy-8-oxo-7,8-dihydro-6H-pyrrolo[3,4-g]quinolin-5-yl)-N-methylmethanesulfonamide]	< 60 nM	< 60 nM
CN(c1c2c(c(O)c3ncccc13)C(=O)N(Cc1ccc(Cl)cc1)C2)S(C)(=O)=O [Compound 183, N-(7-(4-chlorobenzyl)-9-hydroxy-8-oxo-7,8-dihydro-6H-pyrrolo[3,4-g]quinolin-5-yl)-N-methylmethanesulfonamide]	< 60 nM	60 to 1000 nM
CN(c1c2c(c(O)c3ncccc13)C(=O)N(Cc1c(F)ccc(Cl)c1F)C2)S(C)(=O)=O [Compound 185, N-(7-(3-chloro-2,6-difluorobenzyl)-9-hydroxy-8-oxo-7,8-dihydro-6H-pyrrolo[3,4-g]quinolin-5-yl)-N-methylmethanesulfonamide]	< 60 nM	60 to 1000 nM
CN(c1c2c(c(O)c3ncccc13)C(=O)N(Cc1c(F)cc(F)cc1F)C2)S(C)(=O)=O [Compound 187, N-(7-(2,4,6-trifluorobenzyl)-9-hydroxy-8-oxo-7,8-dihydro-6H-pyrrolo[3,4-g]quinolin-5-yl)-N-methylmethanesulfonamide]	< 60 nM	60 to 1000 nM
CN(c1c2c(c(O)c3ncccc13)C(=O)N(Cc1ccc(Cl)cc1F)C2)S(C)(=O)=O [Compound 189, N-(7-(4-chloro-2-fluorobenzyl)-9-hydroxy-8-oxo-7,8-dihydro-6H-pyrrolo[3,4-g]quinolin-5-yl)-N-methylmethanesulfonamide]	< 60 nM	60 to 1000 nM
CN(c1c2c(c(O)c3ncccc13)C(=O)N(Cc1cc(F)ccc1F)C2)S(C)(=O)=O [Compound 191, N-(7-(2,5-difluorobenzyl)-9-hydroxy-8-oxo-7,8-dihydro-6H-pyrrolo[3,4-g]quinolin-5-yl)-N-methylmethanesulfonamide]	< 60 nM	60 to 1000 nM
CN(c1c2c(c(O)c3ncccc13)C(=O)N(Cc1cc(Cl)cc(Cl)c1)C2)S(C)(=O)=O [Compound 193, N-(7-(3,5-dichlorobenzyl)-9-hydroxy-8-oxo-7,8-dihydro-6H-pyrrolo[3,4-g]quinolin-5-yl)-N-methylmethanesulfonamide]	< 60 nM	60 to 1000 nM
CN(c1c2c(c(O)c3ncccc13)C(=O)N(Cc1c(F)cccc1F)C2)S(C)(=O)=O [Compound 195, N-(7-(2,6-difluorobenzyl)-9-hydroxy-8-oxo-7,8-dihydro-6H-pyrrolo[3,4-g]quinolin-5-yl)-N-methylmethanesulfonamide]	60 to 1000 nM	60 to 1000 nM
CN(c1c2c(c(O)c3ncccc13)C(=O)N(Cc1ccc(Cl)c(Cl)c1)C2)S(C)(=O)=O [Compound 197, N-(7-(3,4-dichlorobenzyl)-9-hydroxy-8-oxo-7,8-dihydro-6H-pyrrolo[3,4-g]quinolin-5-yl)-N-methylmethanesulfonamide]	< 60 nM	60 to 1000 nM
CN(c1c2c(c(O)c3ncccc13)C(=O)N(Cc1ccc(F)c(Cl)c1F)C2)S(C)(=O)=O [Compound 199, N-(7-(3-chloro-2,4-difluorobenzyl)-9-hydroxy-8-oxo-7,8-dihydro-6H-pyrrolo[3,4-g]quinolin-5-yl)-N-methylmethanesulfonamide]	< 60 nM	60 to 1000 nM
CN(c1c2c(c(O)c3ncccc13)C(=O)N(Cc1cc(Cl)c(F)cc1F)C2)S(C)(=O)=O [Compound 204, N-(7-(5-chloro-2,4-difluorobenzyl)-9-hydroxy-8-oxo-7,8-dihydro-6H-pyrrolo[3,4-g]quinolin-5-yl)-N-methylmethanesulfonamide]	< 60 nM	< 60 nM
COc1cc(F)ccc1CN1Cc2c(c(O)c3ncccc3c2N(C)S(C)(=O)=O)C1=O [Compound 210, N-(7-(4-fluoro-2-methoxybenzyl)-9-hydroxy-8-oxo-7,8-dihydro-6H-pyrrolo[3,4-g]quinolin-5-yl)-N-methylmethanesulfonamide]	< 60 nM	60 to 1000 nM
